# Measurements as given in paper doi:10.1101/2024.05.17.594634, “Protein Structure Inspired Drug Discovery” (bioRxiv, 2024).
# How the values were obtained:
# HT29 colon cancer cells = experiment: Eight-day colony formation assay, HT29; assay type: cell-based, human
# Method: (§1) We sought to identify compounds that would inhibit the growth of cancer cells, but that also did so selectively. Inhibition of cancer cell growth is a highly sought after attribute of anticancer agents. This was assessed by measuring the ability of a compound to inhibit cell growth in eight-day colony formation assays, examining concentrations ranging from 0.017 to 40 μM. Breast, colon, lung and prostate cancer are four of the most common causes of cancer in the United States, are major causes of cancer cell death, and were examined.[64] Two cell lines for each cancer type were assessed: A549 (adenocarcinoma) and H226 (squamous carcinoma) for lung, MCF-7 (estrogen receptor [ER] positive) and MDA-MB-231 (ER negative) for breast, LNCaP (androgen receptor [AR] positive) and PC3-M (AR negative) for prostate, and HCT116 (wild type p53, mutated KRAS) and HT29 (p53 mutant) for colon.[65]
# (§2) In considering effect on cancer cells, for each compound and each cell line tested we calculated the efficacy ratio, i.e., efficacy ratio = (percent of remaining cancer cell colonies)/(percent of remaining bone marrow colonies), at 8 days after treatment with 40 μM compound (S4 Fig). We considered those with an efficacy ratio below 0.5 as active and at least partially selective. The stringency of this is highlighted by considering the effect of 5FU on colon cancer, where it is frequently used clinically in proven curative settings, as well as proven life prolonging settings.[70, 71] […] Even at 5.7 μM, where 5FU is toxic to bone marrow, with hematopoietic colony formation at 38% of control, the efficacy ratio for HT29 cells has only dropped to 0.52. […] It can be seen that compounds segregate to protein sites. Specifically, of 10 compounds meeting this activity criteria (i.e., efficacy ratio <0.5), 3 were directed at the Dxr2 site, 3 at FolC2, 2 at FolC1, 1 at Dxr1 and 1 at TYLT.
# (§3) Eight-day colony formation assays of cancer cells were performed as described by us.[87] Briefly, 0.5–1.0 × 10^3 cells were seeded into a 12 well plate, after 24 hours compound added and eight days later colonies (of 3 or more cells) were scored after trypan blue staining. Conditions were in replicates of N = 2. All compounds were stored under desiccated conditions in a sealed container at minus 20°C upon arrival. One day prior to use, they were placed into DMSO, stored at […] as stock solutions, thawed just prior to use, and not reused.
# [1] = system: MDA-MB-231 breast cancer cells; experiment: Eight-day colony formation assay, MDA-MB-231; assay type: cell-based, human; settings: for efficacy ratio (cancer cell colonies to bone marrow colonies at 8 days): MDAMB231
# Method: as §1, §2, §3
# A549 lung cancer cells = experiment: Eight-day colony formation assay, A549; assay type: cell-based, human
# Method: as §1, §2, §3
# [2] = system: PC3-M prostate cancer cells; experiment: Eight-day colony formation assay, PC3-M; assay type: cell-based, human
# Method: as §1, §2, §3
# [3] = system: LNCaP prostate cancer cells; experiment: Eight-day colony formation assay, LNCaP; assay type: cell-based, human
# Method: as §1, §2, §3
# human melanoma M14 cells = experiment: Eight-day colony formation assay, M14; assay type: cell-based; settings: for IC50: M14, eight-day assay, mean ± SEM
# Method: We next evaluated the effect of Dxr2-017 on human melanoma M14 and SK-MEL-5 cell lines in eight-day assays (Fig 8A).
# (§4) Fig 8. Dxr2-017 inhibits melanoma cell growth through induction of anoikis. (A) Inhibition of melanoma cell growth. Cells were treated with different concentrations of Dxr2-017 and formation of colonies at eight days depicted. Data are expressed as percent of untreated control and are the mean ± SEM (N=3 replicates) of a single experiment. (B) No effect on cycle progression. M14 and SK-MEL-5 cells were treated for 8 days with 20 and 50 nM Dxr2-017, respectively, and phase of cell cycle determined by flow cytometry. Data are the mean ± SEM (N=3). *denotes P-value ≤0.05. (C) Transition to floating cells. Cells were treated for three days with different Dxr2-017 concentrations. Depicted are representative light photomicrographs at 20X; scale bar is150 μm. Blue and green arrows denote adherent and floating cells, respectively. (D) Cleaved caspase 3 is induced in floating cells. Cells were treated for 3 days, cell lysate from only adherent cells, or from adherent and floating cells combined, was probed by Western blot for cleaved caspase 3. All experiments were repeated at separate times, yielding similar results.
# as §3
# M14 cells = experiment: Cell cycle analysis by flow cytometry, M14; assay type: cell-based, human; settings: 20 nM, eight days
# Method: as §4
# (§5) A total of 1 × 10^4 M14 cells and 1 × 10^4 SK-MEL-5 cells were seeded into 10 cm culture dishes. […] Cells were analyzed by flow cytometry (FACSCalibur3 analyzer, BD Biosciences), and the percentage of cells within G0/G1, S, and G2/M phases were determined via analysis using Modfit LT 4.0.5.
# SK-MEL-5 cells [4] = experiment: Cell cycle analysis by flow cytometry, SK-MEL-5; assay type: cell-based, human; settings: 50 nM, eight days
# Method: as §4, §5
# SK-MEL-5 cells [5] = experiment: Western blot for cleaved caspase 3, SK-MEL-5; assay type: cell-based, human; settings: 3 days, up to 20 μM
# Method: as §4
# We then assessed whether Dxr2-017 was inducing apoptosis. […] These findings raised the possibility that Dxr2-017 was inducing anoikis, a process in which programmed cell death occurs upon cell detachment.[72, 73] […]
smiles,measurement,setting,value
c1ccc2sc(-c3ccc(CNc4ccc5nnnn5n4)o3)nc2c1 [Dxr2-017],efficacy ratio (cancer cell colonies to bone marrow colonies at 8 days),HT29 colon cancer cells; 5.7 μM,0.03
same,efficacy ratio (cancer cell colonies to bone marrow colonies at 8 days),HT29 colon cancer cells; 40 μM,0.00
same,inhibition at 0.12 µM,"HT29 colon cancer cells; Homo sapiens, HT-29, 0.12 μM, mean ± SD, read-out: inhibition of colony formation compared to control",91.1 ± 4.8%
same,efficacy ratio (cancer cell colonies to bone marrow colonies at 8 days),[1]; 5.7 μM,0.05
same,efficacy ratio (cancer cell colonies to bone marrow colonies at 8 days),[1]; 40 μM,0.00
same,inhibition at 0.12 µM,"[1]; Homo sapiens, 0.12 μM, MDA-MB-231, mean ± SD, read-out: inhibition of colony formation compared to control",81.7 ± 15.5%
same,efficacy ratio (cancer cell colonies to bone marrow colonies at 8 days),A549 lung cancer cells; 5.7 μM,1.26
same,efficacy ratio (cancer cell colonies to bone marrow colonies at 8 days),A549 lung cancer cells; 40 μM,0.07
same,efficacy ratio (cancer cell colonies to bone marrow colonies at 8 days),[2]; 5.7 μM,0.41
same,efficacy ratio (cancer cell colonies to bone marrow colonies at 8 days),[2]; 40 μM,0.00
same,efficacy ratio (cancer cell colonies to bone marrow colonies at 8 days),[3]; 5.7 μM,0.49
same,efficacy ratio (cancer cell colonies to bone marrow colonies at 8 days),[3]; 40 μM,0.05
same,IC50,"human melanoma M14 cells; Homo sapiens, M14, 192 h",19 nM
same,IC50,human melanoma M14 cells,19.7 ± 7.4 nM
same,fold efficacy versus bone marrow stem cells,human melanoma M14 cells; M14 IC50 compared to 40 μM eight-day bone marrow treatment,over 2100 fold
same,change in cell cycle parameters,M14 cells,little-to-no change in cell cycle parameters
same,change in cell cycle parameters,SK-MEL-5 cells [4],little-to-no change in cell cycle parameters
same,"cleaved caspase 3, adherent cells only",SK-MEL-5 cells [5],did not detect any induction of cleaved caspase 3
same,"cleaved caspase 3, floating and adherent cells combined",SK-MEL-5 cells [5],clear formation
